Results: patent US20110230424A1, “OPHTHALMIC SOLUTIONS, INCLUDING CONTACT LENS CARE AND EYE DROPS COMPRISING CARNOSINE, PREFERABLY IN COMBINATION WITH DEXPANTHENOL AND/OR HYALURONIC ACID” (priority 2008, published 2011)

Tests used:
[1] = phonophoresis or subconjunctival injection, cited from earlier work
[2] = Stability of carnosine in contact lens care solution; assay type: physicochemical; details: under circumstances; carnosine utilized by bacteria and/or fungi in the solution

| Structure (SMILES) | time within which carnosine accumulates in the aqueous humour after topical administration ([1]; 1% N-acetylcarnosine added to the eye) [min] | stability of carnosine present in the contact lens care solution [2] | effectiveness of carnosine administration in itself to the eye ([1]; quickly metabolised by carnosinase in the eye) |
| --- | --- | --- | --- |
| CC(=O)NCCC(=O)N[C@@H](Cc1cnc[nH]1)C(=O)O [N-acetylcarnosine, reference compound] | 15 to 30 |  |  |
| NCCC(=O)N[C@@H](Cc1cnc[nH]1)C(=O)O [carnosine, (2S)-2-[(3-Amino-1-oxopropyl)amino]-3-(3H-imidazol-4-yl)propanoic acid] |  | less stable than expected | ineffective |
